The values that follow come from US20120082659A1, “Methods And Compositions Related To Synergistic Responses To Oncogenic Mutations” (priority 2007, published 2012).

Data set [1] relates to mp53/Ras cells. Nature of the data set: Proliferation and morphology of mp53/Ras cells in adherent culture. In kind it is cell-based, mouse. As to conditions: for cell proliferation over time: mp53/Ras cells, 2.5 mM. From the text: (§1) These compounds affect human cancer cell line behavior in vitro in the millimolar range and even higher concentrations are required in vivo (Villar-Garea and Esteller, 2004).

The test system of data set [2] is mp53/Ras cells. Nature of the data set: Xenograft tumor formation by mp53/Ras cells in nude mice. In kind it is in vivo, mouse. The conditions noted are these: for tumor formation in nude mice by drug-pre-treated cells: mp53/Ras cells pre-treated in vitro with 2.5 mM, xenograft, vs untreated cells; for % Change in Tumor Volume (Perturbed vs. Control): mp53/Ras cells with gene perturbation, s.c. in nude mice, 4 weeks, vs matched vector control. Here is the method: (§2) Murine mp53/Ras cells were grown at 39° C. for 2 days prior to injection. Human HT-29 and DLD-1 cells were grown in standard conditions, described above. Tumor formation was assessed by sub-cutaneous injection of 5×10^5 cells (mp53/Ras and DLD-1 cells) or 1.25×10^5 cells (HT-29) into CD-1 nude mice (Cr1:CD-1-Foxn1nu, Charles River Laboratories) in appropriate media (RPMI 1640 or DMEM) with no additives. For each replicate of all gene perturbations, 2-12 injections were performed for perturbed cells and vector controls, as indicated in FIGS. 12 and 16. Tumor size was measured by caliper at 2, 3 and 4 weeks post-injection. Tumor volume was calculated by the formula volume=(4/3)πr3, using the average of two radius measurements. Tumor reduction was calculated based on the average tumor volume following each gene perturbation as compared to the directly matched vector control tumors. Statistical significance of difference in tumor size was calculated by the Wilcoxn signed-rank test (Hollander, M. & Wolfe, D. A. Nonparametric Statistical Methods (Wiley-Interscience, Hoboken, N.J., 1998)), comparing tumors derived from perturbed cells with tumors induced by directly matching vector control cells.
Tumor formation was assessed by sub-cutaneous injection of cells into CD-1 nude mice (Cr1: CD-1-Foxn1^nu, Charles River Laboratories). Tumor size was measured by caliper at 2, 3 and 4 weeks post-injection. Significance of difference in tumor size was calculated by the Wilcoxn signed-rank test and by the t-test using directly matching vector control cells for each perturbation.
For tumor formation studies, cells were treated with HDACi as indicated above, then trypsinized, counted and injected sub-cutaneously into the flanks of CD-1 nude mice at a multiplicity of 5×10^5 cells per injection. Mice were observed and tumors measured for 4 weeks post-injection by caliper.
Murine mp53/Ras cells were grown at 39° C. for 2 days prior to injection. Human CaPan-2 and PC3 cells were grown in standard conditions, described above. Tumor formation was assessed by sub-cutaneous injection of 5×10^5 mp53/Ras cells or 7.5×10^5 CaPan-2 or PC3 cells into CD-1 nude mice (Cr1: CD-1-Foxn1^nu, Charles River Laboratories) in appropriate media (RPMI 1640 or DMEM) with no additives. For each replicate of all gene perturbations, 2-12 injections were performed for perturbed cells and vector controls. Tumor size was measured by caliper weekly for up to 6 weeks post-injection. Tumor volume was calculated by the formula volume=(4/3)πr^3, using the average of two radius measurements. Tumor reduction was calculated based on the average tumor volume following each gene perturbation as compared to the directly matched vector control tumors. Statistical significance of difference in tumor size was calculated by both the Wilcoxn signed-rank test and the t-test to assess consistency of significance calls, comparing tumors derived from perturbed cells with tumors induced by directly matching vector control cells.

Data set [3] relates to YAMC cells. Briefly: Cell death / anoikis by TUNEL staining, YAMC cells. In kind it is cell-based, mouse. The conditions noted are these: methylcellulose without FBS or ITS-A. As for the experimental part: (§3) The cells were re-plated at 458,000 cells per 15 cm dish in 10% FBS medium and treated for three days with 2.5 mM NB or VA at 39° C. Cells were then trypsinized and (A), (B) suspended in methylcellulose supplemented with fresh NB or VA, 10% FBS, and ITS-A at 37,000 cells per mL, or (C) suspended in methylcellulose w/o FBS, or ITS-A at 150,000 cells per mL and incubated at 39° C. for three days. Cells were extracted from the methylcellulose by repeated re-suspension in PBS w/1% BSA and centrifugation, and briefly trypsinized to break up cell aggregates. The extracted cells were labeled with 10 μM BrdU for ninety minutes prior to harvesting, fixed in cold 80% ethanol, and stained with an anti-BrdU antibody and propidium iodide to measure cell cycle progression (A), or fixed in 4% paraformaldehyde, and TUNEL-stained to measure cell death (B), (C). Error bars represent standard deviation values derived from multiple independent measurements for each sample. […]
(§4) For anoikis assays, cells were then trypsinized, counted and suspended in methylcellulose at a density of 1.5×10^5 cells/mL for an additional 72 hours in the absence of HDACi. […]
(§5) Paraformaldehyde-fixed cells were pelleted and washed with PBS containing 0.1% BSA. […] TUNEL-stained cells were analyzed by flow cytometry using a FACScalibur (Becton Dickinson). The percentage of TUNEL-positive cells was analyzed using ModFit LT for Mac v2.0.

The test system of data set [4] is cooperation response genes. Nature of the data set: TLDA QPCR of CRG expression in HDACi-treated mp53/Ras cells. In kind it is cell-based, mouse. The conditions noted are these: 2.5 mM, 3 days, 56 CRGs tested by TLDA. As for the experimental part:
The YAMC cell system (Jat et al., 1991; Whitehead et al., 1993) and transformation of these cells by mp53/Ras are described elsewhere (Xia and Land, 2007). YAMC and mp53/Ras cells were cultured for two days at 39° C. in RPMI with 10% FBS without interferon-γ on collagen IV-coated dishes. Cells were then re-plated on collagen IV-coated dishes into the same medium containing either 2.5 mM NB, 2.5 mM VA, or no drug for 72 hours at a density of 4.58×10^5 cells per 15-cm dish. Cells were harvested for RNA isolation at this point, or used for biological assays as described below.
The TaqMan Low-Density Array (Applied Biosystems) consists of TaqMan qPCR reactions targeting the cooperation response genes available and control genes (18S rRNA, GAPDH) in a microfluidic card. TLDA were used to independently test gene expression differences observed in the CMap database which used Affymetrix arrays. To generate cDNA for qPCR analysis, quadruplicate samples of RNA was isolated from untreated YAMC cells or mp53/Ras cells treated with either 2.5 mM VA, 2.5 mM NB or no drug for 72 hours, using the RNeasy and Qiashredder kits (Qiagen). Ten μg of RNA per sample were mixed with 1× SuperScript II First Strand buffer, 10 mM DTT, 400 μM dNTP mixture, 0.3 ng random hexamer primer, 2 μL RNaseOUT RNase inhibitor and 2 μL of SuperScript II reverse transcriptase in a 100 μL reaction (all components from Invitrogen). RT reactions were carried out by denaturing RNA at 70° C. for 10 minutes, plunging RNA on to ice, adding other components, incubating at 42° C. for 1 hour and heat inactivating the RT enzyme by a final incubation at 70° C. for 10 minutes.
For each sample, 82 μL of cDNA was combined with 328 μl of nuclease free water (Invitrogen) and an equal volume of TaqMan Universal PCR Master Mix No AmpErase UNG (Applied Biosystems). The mixture was loaded into each of 8 ports on the card at 100 μL per port. Each reaction contained forward and reverse primer at a final concentration of 900 nM and a TaqMan MGB probe (6-FAM) at 250 nM final concentration. […]. The real-time RT-PCR amplifications were run on an ABI Prism 7900HT Sequence Detection System (Applied Biosystems) with a TaqMan Low Density Array Upgrade. Thermal cycling conditions were as follows: 2 min at 50° C., 10 min at 94.5° C., 40 cycles of 97° C. for 30 seconds, and annealing and extension at 59.7° C. for 1 minute. Each individual replicate cDNA sample was processed on a separate card.
Gene expression values were derived using SDS 2.2 software package (Applied Biosystems). Differential gene expression was calculated by the ΔΔCt method. Briefly, using threshold cycle (Ct) for each gene, change in gene expression was calculated for each sample comparison by the formulae: […]

In data set [5] the test system is YAMC cells. Nature of the data set: Proliferation and morphology of YAMC cells in adherent culture. In kind it is cell-based, mouse. As to conditions: 5 mM, three days, 10% FBS medium.
Description: as §1

The test system of data set [6] is mp53/Ras cells. Briefly: Cell death / anoikis by TUNEL staining, mp53/Ras cells. The conditions noted are these: methylcellulose without FBS or ITS-A. In kind it is cell-based, mouse. As for the experimental part: as §3, §4, §5
For a further data set, the system named is HT-29 cells. Nature of the data set: Xenograft tumor formation by HT-29 colon cancer cells in nude mice. In kind it is in vivo, human. The conditions noted are these: HT-29 cells with gene perturbation, vs matched vector control. Here is the method: as §2

Consider `CCCC(=O)[O-].[Na+]` [sodium butyrate], for which the “cell proliferation over time” value in the data set with mp53/Ras cells [1] is “completely inhibited”. The cell morphology entry was “dramatic morphological change” in the data set on mp53/Ras cells [1] (transformed cells, 5 mM, three days, 10% FBS medium) and “unaffected” with YAMC cells [5]. The “tumor formation in nude mice by drug-pre-treated cells” value in the data set on mp53/Ras cells [2] (four weeks) is “significantly smaller tumors”. In addition, the “NB Tumors” value in the data set with mp53/Ras cells [2] (mp53/Ras cells treated with 2.5 mM NB for three days before injection, 500,000 cells s.c. in CD1 nude mice, four weeks, tumors/injections) is 1/16. Also, in the data set on YAMC cells [3], the “apoptosis (TUNEL)” value is on record as “did not decrease apoptosis”. Besides, the “proportion of CRGs whose expression is significantly altered (reversal of CRG signature)” value in data set [4] is recorded as approximately 55%; in data set [4] (listed as NB) it was “about 55%”. Further, the “increase in cell death (TUNEL)” value with mp53/Ras cells [6] is listed as “greater than five-fold”.

For `CCCC(CCC)C(=O)O` [valproic acid], the “cell proliferation over time” value with mp53/Ras cells [1] is “completely inhibited”. Further, the “tumor formation in nude mice by drug-pre-treated cells” value in the data set with mp53/Ras cells [2] (four weeks) is given as “significantly smaller tumors”. Further, the “proportion of CRGs whose expression is significantly altered (reversal of CRG signature)” value in data set [4] was approximately 55%; in data set [4] (listed as VA), “about 55%”.

“Plac8: shRNA-dependent stable knock-down of up-regulated CRG Plac8 (retroviral) (sense CTGGCAGACCAGCCTGTGTTT; the letters are possibly those of the target site)”: the “% Change in Tumor Volume (Perturbed vs. Control)” value (from here on “% Change in Tumor Volume”) is on record as −100% in the data set with mp53/Ras cells [2] and −100.00% with HT-29 cells.

“Rgs2: shRNA-dependent stable knock-down of up-regulated CRG Rgs2 (retroviral) (sense GCGCAGCTCTGGGCAGAAG; the letters are possibly those of the target site)”: in the data set on mp53/Ras cells [2], the “% Change in Tumor Volume” value was −60%.

For the compound “Slc14a1: shRNA-dependent stable knock-down of up-regulated CRG Slc14a1 (retroviral) (sense TCCTGATTCTGGTGGGACT; the letters are possibly those of the target site)”, the “% Change in Tumor Volume” value in the data set with mp53/Ras cells [2] turned out to be 180%.

“Sod3: shRNA-dependent stable knock-down of up-regulated CRG Sod3 (retroviral) (sense GGCGACACGCATGCCAAAG; target site or template, no part of the molecule)”: the “% Change in Tumor Volume” value in the data set on mp53/Ras cells [2] is −72%.
